The text below walks through data of patent publication US20100286145A1, “ISOPHTHALAMIDE DERIVATIVES INHIBITING BETA-SECRETASE ACTIVITY” (CoMentis, Inc., priority 2007, published 2010).

The subject of assay [1] is Aβ production in Chinese hamster ovary cells that over-express human APP695 with the London and Swedish mutations. The assay is described as follows: Cellular Aβ IC50 determination (Aβ40 sandwich ELISA). The class given is cell-based. The settings on record: Cricetulus griseus. The procedure, abridged:
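CHO cells overexpressing human APP695 with London and Swedish mutations, seeded at 10% confluency, treated with compounds up to about 4 μM final (0.4% DMSO). Secreted Aβ40 measured by sandwich ELISA relative to control and fitted to a 4-parameter IC50 model.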

Assay [2] deals with memapsin 2 (Homo sapiens, UniProt P56817). The assay is described as follows: Inhibition of memapsin 2 beta-secretase activity (fluorogenic substrate FS-2). The conditions noted are these: memapsin 2, pH 4, 37° C., fluorogenic substrate FS-2; read-out: M2Ki. The class given is biochemical. The procedure, abridged: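 Memapsin 2 pre-incubated 20 min with compound at pH 4, 37° C, then FS-2 substrate (MCA-SEVNLDAEFK-DNP, APP Swedish cleavage site) added. Rate of fluorescence increase compared with uninhibited controls, fitted to a tight-binding inhibition model.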

Setting [3] is: cellular Aβ production, read-out: IC50.

Usually IC50 stands for the concentration needed to halve the response being measured.

SMILES strings stand for the structures. Where two headings read alike, the source gives them in different places.

memapsin 2, sequence (P56817 46-501): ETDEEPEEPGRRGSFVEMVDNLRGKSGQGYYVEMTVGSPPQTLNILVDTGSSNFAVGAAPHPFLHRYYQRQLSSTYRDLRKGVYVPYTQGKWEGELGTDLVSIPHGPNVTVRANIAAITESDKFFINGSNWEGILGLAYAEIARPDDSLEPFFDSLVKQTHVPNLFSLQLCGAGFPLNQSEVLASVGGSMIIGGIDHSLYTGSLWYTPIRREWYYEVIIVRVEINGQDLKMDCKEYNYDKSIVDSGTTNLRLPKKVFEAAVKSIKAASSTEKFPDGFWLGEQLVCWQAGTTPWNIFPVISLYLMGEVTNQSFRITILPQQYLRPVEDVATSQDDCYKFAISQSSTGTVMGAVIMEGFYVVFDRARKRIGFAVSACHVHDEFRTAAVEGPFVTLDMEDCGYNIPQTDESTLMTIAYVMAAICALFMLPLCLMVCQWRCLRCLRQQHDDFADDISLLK

As to `COc1cc(CNC[C@@H](O)[C@H](Cc2ccccc2)NC(=O)c2cccc(C(=O)N(C)Cc3nc(C)cs3)c2)cc(N(C)C)c1` [Compound 224, N1-((2S,3R)-4-(3-(dimethylamino)-5-methoxybenzylamino)-3-hydroxy-1-phenylbutan-2-yl)-N3-methyl-N3-((4-methylthiazol-2-yl)methyl)isophthalamide], in assay [1] (setting [3]), the IC50 is below 1 µM. In addition, the Ki in assay [2] is below 0.3 µM.

On to `Cc1csc(CN(C)C(=O)c2cccc(C(=O)N[C@@H](Cc3ccccc3)[C@H](O)CNCc3cncc(F)c3)c2)n1` [Compound 225, N1-((2S,3R)-4-((5-fluoropyridin-3-yl)methylamino)-3-hydroxy-1-phenylbutan-2-yl)-N3-methyl-N3-((4-methylthiazol-2-yl)methyl)isophthalamide], for which the half-inhibitory concentration (IC50) in assay [1] (setting [3]) lay in the range of 1 to 5 µM. In assay [2], the Ki was below 0.3 µM.

For `Cc1csc(CN(C)C(=O)c2cc(C(=O)N[C@@H](Cc3ccccc3)[C@H](O)CNCc3cncc(C(C)(C)C)c3)cc(N(C)C)c2)n1` [Compound 226, N1-((2S,3R)-4-((5-tert-butylpyridin-3-yl)methylamino)-3-hydroxy-1-phenylbutan-2-yl)-5-(dimethylamino)-N3-methyl-N3-((4-methylthiazol-2-yl)methyl)isophthalamide], the concentration for half-maximal inhibition (IC50) in assay [1] (setting [3]) was below 1 µM. Also, the Ki in assay [2] is below 0.3 µM.

`Cc1csc(CN(C)C(=O)c2cc(C(=O)N[C@@H](Cc3ccccc3)[C@H](O)CNCc3cccc(C(C)(F)F)c3)cc(N(C)C)c2)n1` [Compound 227, N1-((2S,3R)-4-(3-(1,1-difluoroethyl)benzylamino)-3-hydroxy-1-phenylbutan-2-yl)-5-(dimethylamino)-N3-methyl-N3-((4-methylthiazol-2-yl)methyl)isophthalamide]: the 50% inhibitory concentration (IC50) in assay [1] (setting [3]) is below 1 µM. For the same molecule, the Ki in assay [2] is below 0.3 µM.

`Cc1csc(CN(C)C(=O)c2cccc(C(=O)N[C@@H](Cc3ccccc3)[C@H](O)CNCc3cc(C(C)C)cc(S(=O)(=O)C(C)C)c3)c2)n1` [Compound 229, N1-((2S,3R)-3-hydroxy-4-(3-isopropyl-5-(isopropylsulfonyl)benzylamino)-1-phenylbutan-2-yl)-N3-methyl-N3-((4-methylthiazol-2-yl)methyl)isophthalamide]: in assay [1] (setting [3]), the 50% inhibitory concentration (IC50) was above 5 µM. In addition, in assay [2], the Ki is below 0.3 µM.

For `COc1cccc(CNC[C@@H](O)[C@H](Cc2ccccc2)NC(=O)c2cc(C(=O)N(C)Cc3nc(C)cs3)cc(N3CCCCC3)c2)c1` [Compound 230, N1-((2S,3R)-3-hydroxy-4-(3-methoxybenzylamino)-1-phenylbutan-2-yl)-N3-methyl-N3-((4-methylthiazol-2-yl)methyl)-5-(piperidin-1-yl)isophthalamide], in assay [1] (setting [3]), the half-inhibitory concentration (IC50) was below 1 µM. The Ki in assay [2] was below 0.3 µM.

With `Cc1csc(CN(C)C(=O)c2cc(C(=O)N[C@@H](Cc3ccccc3)[C@H](O)CNCc3cncc(C(C)C)c3)cc(N3CCCCC3)c2)n1` [Compound 231, N1-((2S,3R)-3-hydroxy-4-((5-isopropylpyridin-3-yl)methylamino)-1-phenylbutan-2-yl)-N3-methyl-N3-((4-methylthiazol-2-yl)methyl)-5-(piperidin-1-yl)isophthalamide], the half-inhibitory concentration (IC50) in assay [1] (setting [3]) is above 5 µM. Moreover, the Ki in assay [2] was below 0.3 µM.

For the molecule `Cc1cc(C(=O)N[C@@H](Cc2ccccc2)[C@H](O)CNCc2cccc(C(F)(F)F)c2)cc(C(=O)N(C)Cc2nc(C)cs2)c1` [Compound 232, N1-((2S,3R)-3-hydroxy-1-phenyl-4-(3-(trifluoromethyl)benzylamino)butan-2-yl)-N3,5-dimethyl-N3-((4-methylthiazol-2-yl)methyl)isophthalamide], the IC50 in assay [1] (setting [3]) was below 1 µM. Besides, the Ki in assay [2] was below 0.3 µM.

For the molecule `Cc1csc(CN(C)C(=O)c2cc(C(=O)N[C@@H](Cc3ccccc3)[C@H](O)CNCc3cccc(C(F)(F)F)c3)cc(N3CCCC3=O)c2)n1` [Compound 233, N1-((2S,3R)-3-hydroxy-1-phenyl-4-(3-(trifluoromethyl)benzylamino)butan-2-yl)-N3-methyl-N3-((4-methylthiazol-2-yl)methyl)-5-(2-oxopyrrolidin-1-yl)isophthalamide], the half-maximal inhibitory concentration (IC50) in assay [1] (setting [3]) is below 1 µM. Also, in assay [2], the Ki is below 0.3 µM.

In the case of `Cc1csc(CN(C)C(=O)c2cccc(C(=O)N[C@@H](Cc3ccccc3)[C@H](O)CNCc3cc(OC(=O)N4CCOCC4)cc(C(C)C)c3)c2)n1` [Compound 234, 3-(((2R,3S)-2-hydroxy-3-(3-(methyl((4-methylthiazol-2-yl)methyl)carbamoyl)benzamido)-4-phenylbutylamino)methyl)-5-isopropylphenyl morpholine-4-carboxylate], in assay [1], the IC50 was below 1 µM. Besides, the Ki in assay [2] was below 0.3 µM.

As for `Cc1noc(CN(C)C(=O)c2cccc(C(=O)N[C@@H](Cc3ccccc3)[C@H](O)CNCc3cncc(C(C)C)c3)c2)n1` [Compound 235, N1-((2S,3R)-3-hydroxy-4-((5-isopropylpyridin-3-yl)methylamino)-1-phenylbutan-2-yl)-N3-methyl-N3-((3-methyl-1,2,4-oxadiazol-5-yl)methyl)isophthalamide], the IC50 in assay [1] (setting [3]) is below 1 µM. Further, the Ki in assay [2] is below 0.3 µM.

With `Cc1csc(CN(C)C(=O)c2cccc(C(=O)N[C@@H](Cc3ccccc3)[C@H](O)CNCc3cc(Cl)cc(Cl)c3)c2)n1` [Compound 236, N1-((2S,3R)-4-(3,5-dichlorobenzylamino)-3-hydroxy-1-phenylbutan-2-yl)-N3-methyl-N3-((4-methylthiazol-2-yl)methyl)isophthalamide], the concentration for half-maximal inhibition (IC50) in assay [1] (setting [3]) is below 1 µM. The Ki in assay [2] was below 0.3 µM.

Regarding `CC(=O)c1cc(C(=O)N[C@@H](Cc2ccccc2)[C@H](O)CNCc2cncc(C(C)C)c2)cc(C(=O)N(C)Cc2nc(C)cs2)c1` [Compound 237, 5-acetyl-N1-((2S,3R)-3-hydroxy-4-((5-isopropylpyridin-3-yl)methylamino)-1-phenylbutan-2-yl)-N3-methyl-N3-((4-methylthiazol-2-yl)methyl)isophthalamide], the half-maximal inhibitory concentration (IC50) in assay [1] (setting [3]) was below 1 µM. In addition, in assay [2], the Ki is below 0.3 µM.

With `COc1cccc(CNC[C@@H](O)[C@H](Cc2ccccc2)NC(=O)c2cc(C(=O)N(C)Cc3nc(C)cs3)cc(-n3cccc3)c2)c1` [Compound 238, N1-((2S,3R)-3-hydroxy-4-(3-methoxybenzylamino)-1-phenylbutan-2-yl)-N3-methyl-N3-((4-methylthiazol-2-yl)methyl)-5-(1H-pyrrol-1-yl)isophthalamide], in assay [1] (setting [3]), the IC50 is below 1 µM. Further, in assay [2], the Ki was below 0.3 µM.

In the case of `Cc1csc(CN(C)C(=O)c2cc(C(=O)N[C@@H](Cc3ccccc3)[C@H](O)CNCc3cncc(C(C)C)c3)cc(-n3cccc3)c2)n1` [Compound 239, N1-((2S,3R)-3-hydroxy-4-((5-isopropylpyridin-3-yl)methylamino)-1-phenylbutan-2-yl)-N3-methyl-N3-((4-methylthiazol-2-yl)methyl)-5-(1H-pyrrol-1-yl)isophthalamide], the half-maximal inhibitory concentration (IC50) in assay [1] (setting [3]) is below 1 µM. Besides, in assay [2], the Ki is below 0.3 µM.

As to `Cc1nc(CN(C)C(=O)c2cccc(C(=O)N[C@@H](Cc3ccccc3)[C@H](O)CNCc3cncc(C(C)C)c3)c2)no1` [Compound 240, N1-((2S,3R)-3-hydroxy-4-((5-isopropylpyridin-3-yl)methylamino)-1-phenylbutan-2-yl)-N3-methyl-N3-((5-methyl-1,2,4-oxadiazol-3-yl)methyl)isophthalamide], in assay [1] (setting [3]), the IC50 fell in the range of 1 to 5 µM. For the same molecule, the Ki in assay [2] lay within 0.301 to 0.5 µM.
